Reference: ChEMBL document CHEMBL2046360, “Hydrophobic Interactions Improve Selectivity to ERα for Ben-zothiophene SERMs” (ACS Med Chem Lett, 2012)
Active and inactive are the calls of the source. The rule behind the calls is not given here.

Columns and labels:
[1] = Cmax in rat at 10 mg/kg, po; assay type: ADME, organism-based; design: dose 10 mg/kg, route oral; conditions: in vivo
[2] = molecular target: T1, Estrogen receptor (Homo sapiens, UniProt P03372); assay: Binding affinity to ERalpha ligand binding domain
T1 sequence (P03372 whole entry): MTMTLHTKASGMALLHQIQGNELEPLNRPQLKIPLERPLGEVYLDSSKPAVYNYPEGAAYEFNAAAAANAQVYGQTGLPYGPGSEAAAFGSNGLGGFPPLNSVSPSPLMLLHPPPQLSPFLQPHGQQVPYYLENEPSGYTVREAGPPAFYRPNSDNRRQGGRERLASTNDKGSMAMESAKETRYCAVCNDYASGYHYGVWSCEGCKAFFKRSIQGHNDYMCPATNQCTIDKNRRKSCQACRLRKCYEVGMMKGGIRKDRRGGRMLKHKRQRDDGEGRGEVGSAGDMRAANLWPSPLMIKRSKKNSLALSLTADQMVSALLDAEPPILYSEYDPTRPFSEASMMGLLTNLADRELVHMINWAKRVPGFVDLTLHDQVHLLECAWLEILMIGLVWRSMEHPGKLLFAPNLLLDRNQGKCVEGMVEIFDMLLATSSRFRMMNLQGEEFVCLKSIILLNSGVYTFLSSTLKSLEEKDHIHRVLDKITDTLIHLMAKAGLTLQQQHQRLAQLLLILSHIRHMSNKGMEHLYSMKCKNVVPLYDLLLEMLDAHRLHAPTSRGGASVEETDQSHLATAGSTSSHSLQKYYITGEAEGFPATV

[3] = tested on: Rattus norvegicus; assay: Antiestrogenic activity in young Sprague-Dawley rat assessed as inhibition of estrogen-induced uterine hypertrophy at 0.01 to 1 mg/kg, po for 3 days; assay type: functional, organism-based
[4] = tested on: MCF7; assay: Antiproliferative activity against human MCF7 cells after 48 hrs by [3H]-thymidine incorporation assay; assay type: functional, cell-based
[5] = Selectivity ratio of Ki for ERbeta to Ki for ERalpha
[6] = tested on: Rattus norvegicus; assay: […] Sprague-Dawley rat assessed as reduction of bone loss by measuring volumetric bone mineral density administered qd after 4 days post ovariectomy measured after 5 weeks; assay type: functional, organism-based
[7] = tested on: Rattus norvegicus; assay: AUC (0 to 24 hrs) in rat at 10 mg/kg, po; assay type: ADME, organism-based, Plasma; design: time < 24 hr, dose 10 mg/kg, route oral; conditions: in vivo
[8] = molecular target: T1, Estrogen receptor; assay: Displacement of [3H]estradiol from ERalpha after 4 hrs by scintillation counting
[9] = molecular target: Estrogen receptor beta (Homo sapiens, UniProt Q92731); assay: Displacement of [3H]estradiol from ERbeta after 4 hrs by scintillation counting
Chain of Estrogen receptor beta (Q92731 whole entry): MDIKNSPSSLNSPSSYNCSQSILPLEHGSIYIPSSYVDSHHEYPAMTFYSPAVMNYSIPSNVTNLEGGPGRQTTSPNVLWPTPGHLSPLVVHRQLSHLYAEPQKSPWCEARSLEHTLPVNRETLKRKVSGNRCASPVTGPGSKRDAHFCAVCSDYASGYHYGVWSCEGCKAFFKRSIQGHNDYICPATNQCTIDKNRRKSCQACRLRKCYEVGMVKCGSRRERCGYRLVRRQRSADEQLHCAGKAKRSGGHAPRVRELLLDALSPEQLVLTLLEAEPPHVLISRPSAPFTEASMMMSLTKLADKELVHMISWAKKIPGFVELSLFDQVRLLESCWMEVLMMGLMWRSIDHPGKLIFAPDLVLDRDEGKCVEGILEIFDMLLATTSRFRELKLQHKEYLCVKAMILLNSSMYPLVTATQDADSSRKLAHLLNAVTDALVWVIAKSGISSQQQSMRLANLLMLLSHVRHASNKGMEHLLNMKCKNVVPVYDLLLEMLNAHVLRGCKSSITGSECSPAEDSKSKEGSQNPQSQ

Cmax [1]: 210 ng/mL
Ki [2]: 0.00025 µM
IC50 [4]: 0.033 µM
Ratio Ki [5]: 140
AUC [7]: 2337 ng·h/mL
Ki [8]: 0.00025 µM
Ki [9]: 0.035 µM
Structure (SMILES): CCCCc1ccc(-c2sc3cc(O)ccc3c2C(=O)c2ccc(OCCN3CCCCC3)cc2)cc1
inhibition [3]: Active
Activity [6]: Dose-dependent effect
